Values quoted from earlier work as cited in paper PMC9410468 (Marine Drugs, 2022).

Tested on: rats
Conditions: rats; selective α3β4 nAChR antagonists; cited from earlier work
From the text: In the mammalian brain, the medial habenula (MHB) expresses high nAChR levels. Recently, α3-containing nAChRs present in the medial habenula have attracted substantial attention because of their potential role in influencing nicotine addiction. In addition, recent studies have shown that the gene polymorphism of the α3 and β4 subunits in vivo are related to nicotine addiction and drug abuse. The α3β4 nAChR subtype is mainly located in the MHB, […] (IPN), and fasciculus retroflexus (FR) of the rat brain. In addition, it is also expres ...

Structure (SMILES): COCC[C@H]1CC2CN3CCc4c([nH]c5ccccc45)[C@](C(=O)OC)(C2)[C@H]13 [18-methoxycoronaridine (18-MC), 18-methoxycoronaridine]
- effect on nicotine self-administration (in words): reduce nicotine self-administration in rats
